In patent publication US7259140B2, “Heparin-binding peptides and uses thereof” (Thomas Jefferson University, priority 2003, dated 2007):

Assays:
Type in all cases: biochemical, human
[1] = tested on: anti-Factor Xa Activity of the Low Molecular Weight Heparin Lovenox ®; experiment: Anti-Factor Xa assay (Stachrom Heparin kit): neutralization of Lovenox in citrate or plasma in vitro; conditions: for Lovenox ® Neutralized: Lovenox 0.7 U/ml
Outline: (§1)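 Chromogenic anti-Factor Xa kit run with UFH, enoxaparin (Lovenox) or danaparoid (Orgaran) in 0.32% citrate or citrated plasma from three volunteers. Heparin/ATIII complex formed, peptide added, then Factor Xa and dye substrate; absorbance at 405 nm, inversely proportional to remaining anti-Factor Xa activity.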

[2] = tested on: anti-Factor Xa Activity of Unfractionated Heparin; experiment: Anti-Factor Xa assay: neutralization of unfractionated heparin in citrate or plasma in vitro; conditions: UFH 0.7 U/ml
Outline: as §1

[3] = tested on: Lovenox ® Activity in Blood from Patients Treated with Lovenox ®; experiment: Neutralizing Lovenox activity in blood from patients treated with Lovenox (anti-Factor Xa assay); conditions: Peptide 12 μg/ml
Outline: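 Blood came from consenting volunteers already on Lovenox® therapy. Neutralizing peptides were tested as a dose response from 1–60 μg/ml. Each point is mean ± SD of triplicate analyses on one patient's blood sample.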

VLVL(ARKKAAKA)3ARKKCAKA (VLVLARKKAAKAARKKAAKAARKKAAKAARKKCAKA; Fragment)
rank as neutralizing agent of Lovenox [1]: most effective neutralizing agents
Lovenox ® Neutralized ([1]; 1 μg/ml Peptide, A Plasma): 0.080 ± .036 U/ml
Lovenox ® Neutralized ([1]; 1 μg/ml Peptide, B Plasma): 0.071 ± 0.056 U/ml
Lovenox ® Neutralized ([1]; 1 μg/ml Peptide, C Plasma): 0.077 ± 0.055 U/ml
Lovenox ® Neutralized ([1]; 1 μg/ml Peptide, Citrate): 0.091 ± .053 U/ml
Lovenox ® Neutralized ([1]; 6 μg/ml Peptide, A Plasma): 0.218 ± .026 U/ml
Lovenox ® Neutralized ([1]; 6 μg/ml Peptide, B Plasma): 0.233 ± 0.025 U/ml
Lovenox ® Neutralized ([1]; 6 μg/ml Peptide, C Plasma): 0.217 ± 0.154 U/ml
Lovenox ® Neutralized ([1]; 6 μg/ml Peptide, Citrate): 0.432 ± .086 U/ml
Lovenox ® Neutralized ([1]; 12 μg/ml Peptide, A Plasma): 0.365 ± .076 U/ml
Lovenox ® Neutralized ([1]; 12 μg/ml Peptide, B Plasma): 0.290 ± 0.047 U/ml
Lovenox ® Neutralized ([1]; 12 μg/ml Peptide, C Plasma): 0.380 ± 0.045 U/ml
Lovenox ® Neutralized ([1]; 12 μg/ml Peptide, Citrate): 0.484 ± .012 U/ml
anti-Factor Xa activity of LMWH neutralized ([1]; 12 μg/ml, plasma): about 0.4 U/ml
Lovenox ® Neutralized ([1]; 60 μg/ml Peptide, A Plasma): 0.483 ± .070 U/ml
Lovenox ® Neutralized ([1]; 60 μg/ml Peptide, B Plasma): 0.456 ± 0.029 U/ml
Lovenox ® Neutralized ([1]; 60 μg/ml Peptide, C Plasma): 0.461 ± 0.05 U/ml
Lovenox ® Neutralized ([1]; 60 μg/ml Peptide, Citrate): 0.550 ± .027 U/ml
Lovenox ® Neutralized ([1]; 120 μg/ml Peptide, A Plasma): 0.674 ± .105 U/ml
Lovenox ® Neutralized ([1]; 120 μg/ml Peptide, B Plasma): 0.515 ± 0.005 U/ml
Lovenox ® Neutralized ([1]; 120 μg/ml Peptide, C Plasma): 0.483 ± 0.044 U/ml
Lovenox ® Neutralized ([1]; 120 μg/ml Peptide, Citrate): 0.533 ± .017 U/ml
anti-LMWH effect in citrate compared with plasma ([1]; Table 2A): greater anti-LMWH effect in citrate than in plasma
Lovenox/LMWH neutralization compared with protamine ([1]; low concentrations, in the presence of plasma): more effective than protamine
Unfractionated Heparin Neutralized ([2]; 1 μg/ml Peptide, A Plasma): 0.240 ± 0.061 U/ml
Unfractionated Heparin Neutralized ([2]; 1 μg/ml Peptide, B Plasma): 0.259 ± 0.063 U/ml
Unfractionated Heparin Neutralized ([2]; 1 μg/ml Peptide, C Plasma): 0.233 ± 0.075 U/ml
Unfractionated Heparin Neutralized ([2]; 1 μg/ml Peptide, Citrate): 0.262 ± 0.101 U/ml
Unfractionated Heparin Neutralized ([2]; 6 μg/ml Peptide, A Plasma): 0.574 ± 0.014 U/ml
Unfractionated Heparin Neutralized ([2]; 6 μg/ml Peptide, B Plasma): 0.550 ± 0.061 U/ml
Unfractionated Heparin Neutralized ([2]; 6 μg/ml Peptide, C Plasma): 0.559 ± 0.014 U/ml
Unfractionated Heparin Neutralized ([2]; 6 μg/ml Peptide, Citrate): 0.597 ± 0.034 U/ml
Unfractionated Heparin Neutralized ([2]; 12 μg/ml Peptide, A Plasma): 0.618 ± 0.014 U/ml
Unfractionated Heparin Neutralized ([2]; 12 μg/ml Peptide, B Plasma): 0.586 ± 0.001 U/ml
Unfractionated Heparin Neutralized ([2]; 12 μg/ml Peptide, C Plasma): 0.526 ± 0.031 U/ml
Unfractionated Heparin Neutralized ([2]; 12 μg/ml Peptide, Citrate): 0.534 ± 0.056 U/ml
Lovenox ® Neutralized ([3]; blood of Lovenox-treated Patient Number 1): 0.043 U/ml
Lovenox ® Neutralized ([3]; blood of Lovenox-treated Patient Number 2): 0.335 U/ml
Lovenox ® Neutralized ([3]; blood of Lovenox-treated Patient Number 3): 0.008 U/ml
Lovenox ® Neutralized ([3]; blood of Lovenox-treated Patient Number 4): 0.172 U/ml
Lovenox ® Neutralized ([3]; blood of Lovenox-treated Patient Number 5): 0.110 U/ml
Lovenox ® Neutralized ([3]; blood of Lovenox-treated Patient Number 8): 0.329 U/ml
Lovenox ® Neutralized ([3]; blood of Lovenox-treated Patient Number 9): 0.200 U/ml
Lovenox ® Neutralized ([3]; blood of Lovenox-treated Patient Number 10): 0.184 U/ml
Lovenox ® Neutralized ([3]; blood of Lovenox-treated Patient Number 11): 0.240 U/ml
